Where no end group is shown, it is not given here.
What was measured:
[1] = system: human minimal promoter of the SCN5A gene; assay: Luciferase assay in hEK-293 cells, minimal promoter of SCN5A; format: cell-based; details: hEK-293, co-transfected with cDNA SEQ ID NO: 5, 48 hours
Procedure: (§1) 48 hours after transfection, luciferase assays were performed using the LightSwitch Luciferase Assay reagent, also from Active Motif, and a Berthold luminometer. All assays were performed in triplicate and each point represents the mean of each technical triplicate.

[2] = system: human iPSC-derived cardiomyocytes; assay: INa, IK1 and INaL by patch-clamp in cardiomyocytes infected with adeno-associated virus encoding the peptide; format: cell-based; details: hiPSC-CM
Text: One-way ANOVA followed by the Tukey test.

[3] = system: human Kir2.1 channels; assay: Density of IKir2.1 by whole-cell patch-clamp in CHO cells co-transfected with the cDNA encoding the peptide; format: cell-based; details: CHO cells expressing Kir2.1 plus cDNA of the peptide (SEQ ID NO: 5), vs cells transfected only with Kir2.1 channels
Procedure: (§2) To do this, CHO cells were transfected with the cDNA that encodes the human cardiac channels (Kir2.1) that generate IK1 (Origene, USA) (SEQ ID NO: 22), co-transfecting cells, or not, with the cDNA described in SEQ ID NO: 5. […] The sampling frequency was 4 kHz and the data, filtered at a frequency of 2 kHz, were stored on hard disks for further analysis using the CLAMPFIT application of the pCLAMP software. The current (IKir2.1) was recorded by applying 250 ms pulses from -120 to +20 mV from a holding potential of -60 mV. The density of the same was obtained by normalising the amplitude of IKir2.1 at the end of the pulse by the capacitance of each cell (pA/pF). […] Like in example 2.1, each point represents the mean±SEM of "n" experiments obtained from at least 3 different CHO cell plates. One-way ANOVA followed by the Tukey test. * P<0.05 vs. cells transfected only with Kir2.1 channels.

[4] = system: murine model of CI with reduced ejection fraction (HFrEF); assay: Murine model of CI (transverse aortic constriction): capacitance, INa and IK1 of dissociated cardiomyocytes; format: in vivo, mice
Text: (§3) A murine model of CI with reduced ejection fraction (HFrEF) was used to analyse the effect of SEQ ID NO: 3 on the decrease in INa and IK1 caused by electrical remodelling associated with Cl. The mice are subjected to transverse aortic constriction (TAC) with ligation, and pressure overload leads to the occurrence of cardiac hypertrophy and Cl. The mice were produced at the Medical Research Centre of the University of Navarra (CIMA), under the direction of Dr Aránzazu González Miqueo.
(§4) Eight-week-old mice were administered 3.5×10^10 particles of adeno-associated virus type 9 that encoded either the fluorescent reporter td-Tomato (Aav-dt-T) alone, or the reporter and the peptide DECA-11. At 12 weeks of age, an echocardiographic check-up (baseline) was performed and at week 13 they underwent surgery in which the aorta was ligated (TAC animals) or not (Sham animals).
(§5) That same week they were sent to the UCM animal facility. Next, the mice were heparinised and anaesthetised and then sacrificed by cervical dislocation, at a rate of one per day, and a thoracotomy was performed to remove the heart which was mounted through the aorta into a cannula connected to a Langendorff apparatus for enzymatic dissociation of the cardiac myocytes. After removal of the heart, said heart was cannulated through the aorta and placed in a Langendorff apparatus. First, the hearts were perfused with modified Tyrode's solution (composition in mM: 136 NaCI, 4 KCI, 2 MgCl2, 1.8 CaCl2, 10 HEPES, 10 glucose, 3 pyruvic acid and 0.1 thiamine, pH=7.4 with NaOH) bubbled with oxygen and at 37°C for 3-5 minutes. Subsequently, they were perfused for another 8 minutes with the same solution without CaCl2. After 1-2 minutes, the heart stops beating. Next, they were perfused with Tyrode's solution without CaCl2 supplemented with 120 u/ml collagenase type II from Worthington and 0.5 u/ml protease XIV from Sigma. Lastly, the hearts were perfused with a solution called KB of the following composition (mM): 25 KCI, 10 KH2PO4, 2 MgCI2, 0.5 EGTA-K, 5 HEPES-K, 100 glutamic acid, 10 aspartic acid, 20 taurine, 5 creatine and 10 glucose (pH=7.2 with KOH). After this process has been completed, the heart was detached from the cannula and shaken in aliquots of KB solution where the myocytes were disintegrated and stored in the refrigerator for at least one hour before electrophysiological recordings were started.
Capacitance is an indirect and reliable measure of cell size. As can be observed, there was no significant difference in the capacitance of myocytes from Sham animals, had they been infected with Ad-td-Tomato (control) or with Aav-DECA-11.
To record INa in mouse cardiomyocytes, the composition of the external solution was (mM): 4 NaCl, 1 MgCl2, 1 CaCl2, 0.1 CdCl2, 133.5 CsCl, 20 HEPES and 11 glucose (pH=7.35 with CsOH) and the solution that filled the recording micropipette was (mM): 10 NaF, 110 CsF, 20 CsCl, 10 HEPES and 10 EGTA (pH 7.35 with CsOH). All other protocols and conditions were the same as those used for recording INa in human iPSC-derived cardiomyocytes (according to Example 2.3).
(§6) As indicated above, IK1 was also recorded in mouse cardiomyocytes from all four groups. […] In fact, the density of IK1 in TAC animals pretreated with DECA-11 is not different from that recorded in Sham animals.

[5] = system: minimal promoter of the human KCNJ2 gene; assay: Luciferase promoter assay in hEK-293 cells, KCNJ2; format: cell-based; details: hEK-293 cells co-transfected with cDNA SEQ ID NO: 5; 48 hours after transfection
Procedure: as §1

[6] = system: human Kir2.1 channels; assay: IKir2.1 density, whole-cell patch-clamp in CHO cells co-transfected with Kir2.1 and the cDNA encoding the peptide; format: cell-based; details: CHO cells co-transfected with cDNA SEQ ID NO: 5; vs. cells transfected only with Kir2.1 channels; P<0.05
Procedure: as §2

[7] = system: dissociated cardiomyocytes from Sham and TAC mice; assay: IK1 density in dissociated cardiomyocytes, murine TAC model of HFrEF; format: in vivo; details: for IK1: administration of DECA-11 (AAV9)
Text: as §3, §4
as §5, with “Lastly, the hearts were perfused with a solution called KB of the following composition (mM): 25 KCI, 10 KH2PO4, 2 MgCI2, 0.5 EGTA-K, 5 HEPES-K, 100 glutamic acid, 10 aspartic acid, 20 taurine, 5 creatine and 10 glucose (pH=7.2 with KOH). After this process has been completed, the heart was detached from the cannula and shaken in aliquots of KB solution where the myocytes were disintegrated and stored in the refrigerator for at least one hour before electrophysiological recordings were started.” left out
as §6

[8] = system: human iPSC-derived cardiomyocytes; assay: INa density in hiPSC-CM infected with AAV9 encoding the peptide, patch-clamp; format: cell-based; details: hiPSC-CM infected 48 hours with AAV9 encoding DECA-11; vs. Ad-td-Tomato infected cardiomyocytes; P<0.05
[9] = system: human iPSC-derived cardiomyocytes; assay: IK1 density in hiPSC-CM infected with AAV9 encoding the peptide, patch-clamp; format: cell-based; details: hiPSC-CM infected 48 hours with AAV9 encoding DECA-11; vs. Ad-td-Tomato infected cardiomyocytes; P<0.05
[10] = infection 48 hours before recording, vs Ad-td-Tomato
[11] = cardiomyocytes from Sham animals
[12] = cardiomyocytes from TAC animals

| Sequence | effect on the minimal promoter of the human SCN5A gene [1] | INaL ([2]; TTX (10 µM) sensitive sustained current as percentage of the current peak) | density of IK1 [2, 10] | density of INa [2, 10] | density of IKir2.1 [3] | capacitance of myocytes ([4]; TAC animals, vs untreated TAC animals) | IK1 [4, 11] | density of INa [4, 11] | IK1 [4, 12] | density of INa [4, 12] | effect on the minimal promoter of the human KCNJ2 gene (luciferase) [5] | density of IKir2.1 [6] | IK1 ([7]; Sham animals) | density of IK1 compared with that recorded in Sham animals ([7]; TAC animals pretreated with DECA-11 vs. Sham animals) | IK1 ([7]; TAC animals) | density of INa [8] | density of IK1 [9] |
| --- | --- | --- | --- | --- | --- | --- | --- | --- | --- | --- | --- | --- | --- | --- | --- | --- | --- |
| RFTRESLAAIE [DECA-11, RFTRESLAAIE] | no significant effect | does not increase INaL | significantly increase the density of INa and IK1 | significantly increase the density of INa and IK1 | significantly increase the density of IKir2.1 | significantly lower | significantly increases IK1 | increased the density of INa | significantly increases IK1 | significantly and markedly increased the density of INa | – | – | – | – | – | – | – |
| RFTRESLAAIE (listed as Homo sapiens) [SEQ ID NO: 3, 11-amino acid peptide, amino acids 15-25 of human Nav1.5] | – | – | – | – | – | – | – | – | – | – | protranscriptional effect | significantly increase | significantly increases | not different | significantly increases | significantly increase | significantly increase |
